According to US20250241892A1, “5-METHOXY-N,N-[…][…] THE TREATMENT OF PSYCHOMOTOR RETARDATION” (GH RESEARCH IRELAND LIMITED, priority 2022, published 2025):

How the values were obtained:
[1] = Pharmacokinetics of 5-MeO-DMT and bufotenine after inhalation; type: in vivo, human
Description: Blood samples were obtained at 1; 2; 4; 7; 10; 15; 20; 30; 45 min and 1; 1.5; 2; 3; 4 hours after administration.
PK parameters were generated by algebraic analysis of the concentration versus time plots for each individual. The analysis was carried out using the software Phoenix WinNonlin 6.3.

[2] = tested on: patients with treatment-resistant major depressive disorder (TRD); assay: Phase 1/2 clinical trial of inhaled 5-MeO-DMT in TRD; settings: for Patients who experienced at least one ADR: n=4; for Patients with MADRS remission: n=4, day seven after dosing
Description: Patients were assigned to different groups. In the context of the present invention, the group who received a single, 12 mg dose and the group who underwent an intra-day individualized dosing regimen (IDR) that allowed for multiple, escalating doses (6 mg, 12 mg and 18 mg) within a single day, driven by the intensity of the patient-reported psychedelic experience are of interest.
This trial was designed in two parts. Part A was an open-label, single-arm, single-dose Phase 1 trial with two dose levels (12 mg (n=4) and 18 mg (n=4)). […] The primary endpoint of Part B was to assess the effects on the severity of depression, as assessed by the proportion of patients in remission on day seven after dosing, defined as a MADRS total score of less than or equal to 10.

[3] = TRD, 12 mg n=4, 2 hours after dose, baseline 16
[4] = TRD, 12 mg n=4, 3 hours after dose, baseline 18
[5] = TRD, 12 mg n=4, 3 hours after dose, baseline 25
[6] = TRD, 12 mg n=4, day 1, baseline 12
[7] = TRD, 12 mg n=4, day 1, baseline 13
[8] = TRD, 12 mg n=4, day 1, baseline 16
[9] = TRD, 12 mg n=4, day 1, baseline 25
[10] = TRD, 12 mg n=4, day 7, baseline 12
[11] = TRD, 12 mg n=4, day 7, baseline 13
[12] = TRD, 12 mg n=4, day 7, baseline 16
[13] = TRD, 12 mg n=4, day 7, baseline 25
[14] = TRD, IDR n=8, 2 hours after last dose, baseline 27
[15] = TRD, IDR n=8, 2 hours after last dose, baseline 28
[16] = TRD, IDR n=8, day 1, baseline 25
[17] = TRD, IDR n=8, day 1, baseline 27
[18] = TRD, IDR n=8, day 7, baseline 25
[19] = TRD, IDR n=8, day 7, baseline 27
[20] = TRD, IDR n=8, day 7, baseline 30

Compound: COc1ccc2[nH]cc(CCN(C)C)c2c1 [5-MeO-DMT]
- Detectability in plasma ([1]; 3 hours after inhalation, whole dose range 6, 12, 18 mg): no longer detectable
- Pharmacokinetic measurements with uptitration dosing schemes ([1]; compared with single doses): Substantially similar results
- Changes in safety laboratory analyses, vital signs, psychiatric safety assessments, measures of cognitive function ([2]; Part A and Part B): No clinically significant changes
- SAEs reported ([2]; Part A, 12 mg and 18 mg groups): No SAEs
- Patients who experienced at least one ADR ([2]; Part A, 12 mg single dose): 3 of 4
- Patients with MADRS remission ([2]; Part A, 12 mg): 50%
- Patients who experienced at least one ADR ([2]; Part A, 18 mg single dose): 3 of 4
- Patients with MADRS remission ([2]; Part A, 18 mg): 25%
- Outcome of ADRs ([2]; Part B, IDR, n=8): All ADRs resolved spontaneously
- SAEs reported ([2]; Part B, IDR, n=8): No SAEs
- MADRS Suicidal Thoughts, sum of patient scores ([2]; TRD, 12 mg n=4, 2 hours after dose, baseline 8): 3
- MADRS Inner Tension, sum of patient scores ([2]; TRD, 12 mg n=4, 2 hours after dose, baseline 13): 2
- MADRS Concentration Difficulties, sum of patient scores [2, 3]: 7
- MADRS Inability to Feel, sum of patient scores [2, 3]: 9
- MADRS Lassitude, percentage improvement [2, 3]: 38%
- MADRS Lassitude, sum of patient scores [2, 3]: 10
- MADRS Pessimistic Thoughts, percentage improvement [2, 3]: 50.00%
- MADRS Pessimistic Thoughts, sum of patient scores [2, 3]: 8
- BPRS Blunted Affect, sum of patient scores ([2]; TRD, 12 mg n=4, 3 hours after dose, baseline 11): 8
- BPRS Emotional Withdrawal, sum of patient scores ([2]; TRD, 12 mg n=4, 3 hours after dose, baseline 13): 11
- BPRS Tension, sum of patient scores ([2]; TRD, 12 mg n=4, 3 hours after dose, baseline 14): 9
- BPRS Guilt Feelings, percentage improvement [2, 4]: 50.00%
- BPRS Guilt Feelings, sum of patient scores [2, 4]: 9
- BPRS Anxiety, percentage improvement [2, 5]: 56.00%
- BPRS Anxiety, sum of patient scores [2, 5]: 11
- MADRS Suicidal Thoughts, sum of patient scores ([2]; TRD, 12 mg n=4, day 1, baseline 8): 5
- BPRS Blunted Affect, sum of patient scores ([2]; TRD, 12 mg n=4, day 1, baseline 11): 6
- MADRS Reduced Sleep, percentage improvement [2, 6]: 17%
- MADRS Reduced Sleep, sum of patient scores [2, 6]: 10
- BPRS Emotional Withdrawal, sum of patient scores [2, 7]: 8
- MADRS Inner Tension, sum of patient scores [2, 7]: 3
- BPRS Tension, sum of patient scores ([2]; TRD, 12 mg n=4, day 1, baseline 14): 6
- MADRS Concentration Difficulties, sum of patient scores [2, 8]: 2
- MADRS Inability to Feel, sum of patient scores [2, 8]: 1
- MADRS Lassitude, percentage improvement [2, 8]: 100%
- MADRS Lassitude, sum of patient scores [2, 8]: 0
- MADRS Pessimistic Thoughts, sum of patient scores [2, 8]: 7
- BPRS Guilt Feelings, sum of patient scores ([2]; TRD, 12 mg n=4, day 1, baseline 18): 5
- BPRS Anxiety, percentage improvement [2, 9]: 76.00%
- BPRS Anxiety, sum of patient scores [2, 9]: 6
- MADRS Suicidal Thoughts, sum of patient scores ([2]; TRD, 12 mg n=4, day 7, baseline 8): 7
- BPRS Blunted Affect, sum of patient scores ([2]; TRD, 12 mg n=4, day 7, baseline 11): 5
- MADRS Reduced Sleep, percentage improvement [2, 10]: 50%
- MADRS Reduced Sleep, sum of patient scores [2, 10]: 6
- BPRS Emotional Withdrawal, sum of patient scores [2, 11]: 6
- MADRS Inner Tension, sum of patient scores [2, 11]: 5
- BPRS Tension, sum of patient scores ([2]; TRD, 12 mg n=4, day 7, baseline 14): 6
- MADRS Concentration Difficulties, sum of patient scores [2, 12]: 3
- MADRS Inability to Feel, sum of patient scores [2, 12]: 1
- MADRS Lassitude, percentage improvement [2, 12]: 81%
- MADRS Lassitude, sum of patient scores [2, 12]: 3
- MADRS Pessimistic Thoughts, percentage improvement [2, 12]: 50.00%
- MADRS Pessimistic Thoughts, sum of patient scores [2, 12]: 8
- BPRS Guilt Feelings, sum of patient scores ([2]; TRD, 12 mg n=4, day 7, baseline 18): 5
- BPRS Anxiety, percentage improvement [2, 13]: 76.00%
- BPRS Anxiety, sum of patient scores [2, 13]: 6
- MADRS Suicidal Thoughts, sum of patient scores ([2]; TRD, IDR n=8, 2 hours after last dose, baseline 11): 3
- MADRS Inner Tension, sum of patient scores ([2]; TRD, IDR n=8, 2 hours after last dose, baseline 26): 11
- MADRS Lassitude, percentage improvement [2, 14]: 63%
- MADRS Lassitude, sum of patient scores [2, 14]: 10
- MADRS Pessimistic Thoughts, percentage improvement [2, 15]: 75.00%
- MADRS Pessimistic Thoughts, sum of patient scores [2, 15]: 7
- MADRS Concentration Difficulties, sum of patient scores ([2]; TRD, IDR n=8, 2 hours after last dose, baseline 30): 11
- MADRS Inability to Feel, sum of patient scores ([2]; TRD, IDR n=8, 2 hours after last dose, baseline 36): 12
- BPRS Emotional Withdrawal, sum of patient scores ([2]; TRD, IDR n=8, 3 hours after last dose, baseline 13): 8
- BPRS Blunted Affect, sum of patient scores ([2]; TRD, IDR n=8, 3 hours after last dose, baseline 15): 11
- BPRS Tension, sum of patient scores ([2]; TRD, IDR n=8, 3 hours after last dose, baseline 16): 11
- BPRS Guilt Feelings, sum of patient scores ([2]; TRD, IDR n=8, 3 hours after last dose, baseline 34): 14
- BPRS Anxiety, sum of patient scores ([2]; TRD, IDR n=8, 3 hours after last dose, baseline 37): 19
- MADRS Suicidal Thoughts, sum of patient scores ([2]; TRD, IDR n=8, day 1, baseline 11): 1
- BPRS Emotional Withdrawal, sum of patient scores ([2]; TRD, IDR n=8, day 1, baseline 13): 8
- BPRS Blunted Affect, sum of patient scores ([2]; TRD, IDR n=8, day 1, baseline 15): 8
- BPRS Tension, sum of patient scores ([2]; TRD, IDR n=8, day 1, baseline 16): 11
- MADRS Reduced Sleep, percentage improvement [2, 16]: 52%
- MADRS Reduced Sleep, sum of patient scores [2, 16]: 12
- MADRS Inner Tension, sum of patient scores ([2]; TRD, IDR n=8, day 1, baseline 26): 6
- MADRS Lassitude, percentage improvement [2, 17]: 81%
- MADRS Lassitude, sum of patient scores [2, 17]: 5
- MADRS Pessimistic Thoughts, sum of patient scores ([2]; TRD, IDR n=8, day 1, baseline 28): 4
- MADRS Concentration Difficulties, sum of patient scores ([2]; TRD, IDR n=8, day 1, baseline 30): 1
- BPRS Guilt Feelings, sum of patient scores ([2]; TRD, IDR n=8, day 1, baseline 34): 11
- MADRS Inability to Feel, sum of patient scores ([2]; TRD, IDR n=8, day 1, baseline 36): 2
- BPRS Anxiety, sum of patient scores ([2]; TRD, IDR n=8, day 1, baseline 37): 16
- MADRS Suicidal Thoughts, sum of patient scores ([2]; TRD, IDR n=8, day 7, baseline 11): 3
- BPRS Emotional Withdrawal, sum of patient scores ([2]; TRD, IDR n=8, day 7, baseline 13): 8
- BPRS Blunted Affect, sum of patient scores ([2]; TRD, IDR n=8, day 7, baseline 15): 8
- BPRS Tension, sum of patient scores ([2]; TRD, IDR n=8, day 7, baseline 16): 10
- MADRS Reduced Sleep, percentage improvement [2, 18]: 64%
- MADRS Reduced Sleep, sum of patient scores [2, 18]: 9
- MADRS Inner Tension, sum of patient scores ([2]; TRD, IDR n=8, day 7, baseline 26): 12
- MADRS Lassitude, percentage improvement [2, 19]: 89%
- MADRS Lassitude, sum of patient scores [2, 19]: 3
- MADRS Pessimistic Thoughts, sum of patient scores ([2]; TRD, IDR n=8, day 7, baseline 28): 3
- MADRS Concentration Difficulties, percentage improvement [2, 20]: 70.00%
- MADRS Concentration Difficulties, sum of patient scores [2, 20]: 9
- BPRS Guilt Feelings, sum of patient scores ([2]; TRD, IDR n=8, day 7, baseline 34): 10
- MADRS Inability to Feel, sum of patient scores ([2]; TRD, IDR n=8, day 7, baseline 36): 6
- BPRS Anxiety, sum of patient scores ([2]; TRD, IDR n=8, day 7, baseline 37): 17
